Laboratory results reported in patent US11963960B2 (Flash Therapeutics, LLC, priority 2020, dated 2024).
Entries after “also recorded” stand apart in the source; their conditions may differ. Read-outs that look alike come from different tables or passages of the source.

Assays:
[1] = biological target: N-terminally GST-tagged HCK (75-526) (Homo sapiens (Human), UniProt P08631); experiment: HCK Kinase Assay (ProFluor Src-Family Kinase Assay); type: biochemical
Summary of the method: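 ProFluor Src-family format: after the kinase reaction, protease solution was added for 60 min at room temperature (22-25° C), then stabilizer.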

[2] = Assessment of In Vitro Metabolic Stability in dog liver microsomes; type: in vitro ADME; conditions: for t1/2 in dog LM compared with the compound of example 1: comparison in words; for half-life at 1 μM: dog liver microsomes 0.5 mg/mL, 1 μM compound, NADPH, 37° C., read-out: Dog LM t1/2
Experimental: Assessment of In Vitro Metabolic Stability
Dog liver microsomes (0.5 mg/mL) were purchased from Corning. Stock solutions were prepared at 10 mM in DMSO for the test compound. Aliquots of the stock solutions were diluted to 0.5 mM with acetonitrile, and then further diluted upon the addition of liver microsomes/buffer to 1.5 μM. An aliquot of 30 μL of 1.5 μM solutions was mixed with 15 μL of 6 mM NADPH and the final concentration of NADPH was 2 mM, which had been pre-warmed to 37° C. Test compound and Ketanserin final concentrations were 1 μM. The plates were kept in a 37° C. water bath for the duration of the experiment. At each time point (0, 5, 15, 30, 45 minutes), 135 μL of acetonitrile was added into corresponding wells. After the final time point was quenched by acetonitrile, the assay plates were shaken (IKA, MTS 2/4) for 10 min (600 rpm/min) and then centrifuged at 5,594 g for 15 min (Thermo Multifuge×3R). Aliquots of the supernatant were taken, diluted 1:1 into distilled water, and analyzed by LC-MS/MS. The peak area response ratio to internal standard (PARR) of the compounds at 5, 15, 30, 45 minutes was compared to the PARR at time 0 to determine the percent of test compound remaining at each time point. Half-lives were calculated using Excel software, fitting to a single-phase exponential decay equation.

[3] = Assessment of In Vivo Pharmacokinetics in Beagle dog; conditions: for bioavailability in vivo / plasma clearance in vivo: dog, comparison in words; for Dog BAV: male Beagle dog, iv or po at 1 mg/kg or 3 mg/kg
Experimental: Assessment of In Vivo Pharmacokinetics
A total of 6 Male Non-naïve Beagle dog, weighing approximately 8.00-10.00 kg (Beijing Marshall Biotechnology Co. LTD), were dosed by intravenous injection (iv) or oral gavage (po) at 1 mg/kg or 3 mg/kg. The vehicles of IV and PO are 100% saline and 100% (0.5% MC in water), respectively. The IV dose was conducted via cephalic vein injection, PO via gavage administration. The animals were restrained manually, and approximately 0.5 mL blood/time point was collected from cephalic vein into pre-cooled K2EDTA tubes. Blood sample was put on wet ice and centrifuged at 4° C. (2000 g, 5 min) to obtain plasma within 15 minutes of sample collection. Plasma samples were analyzed by UPLC/MS-MS. PK parameters were estimated by non-compartmental model using WinNonlin6.4.

[4] = HCK inhibitory activity, 50 μM ATP, read-out: HCK Activity

N-terminally GST-tagged HCK (75-526), sequence (P08631 75-526): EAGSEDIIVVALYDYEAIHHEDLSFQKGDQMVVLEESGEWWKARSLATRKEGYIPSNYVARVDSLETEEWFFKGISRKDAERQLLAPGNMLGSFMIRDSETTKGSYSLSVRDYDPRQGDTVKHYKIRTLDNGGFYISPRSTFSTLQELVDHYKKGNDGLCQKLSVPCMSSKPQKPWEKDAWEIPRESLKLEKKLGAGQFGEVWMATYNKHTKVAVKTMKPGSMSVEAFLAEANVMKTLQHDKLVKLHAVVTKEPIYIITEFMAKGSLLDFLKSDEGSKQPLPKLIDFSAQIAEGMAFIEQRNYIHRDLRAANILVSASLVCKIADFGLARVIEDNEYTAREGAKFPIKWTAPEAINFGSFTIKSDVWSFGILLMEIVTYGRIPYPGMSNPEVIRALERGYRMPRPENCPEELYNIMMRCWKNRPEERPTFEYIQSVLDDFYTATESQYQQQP

IC50 ([1]; 50 μM ATP, read-out: HCK IC50)	IC50 [1, 4]	t1/2 in dog LM compared with the compound of example 1 [2]	half-life at 1 μM [2]	Structure (SMILES)	also measured
43 nM	< 50 nM	higher t1/2	2.13 h	C[C@H]1CN([C@H]2CC[C@H](n3nc(-c4ccc(Oc5ccccc5)cc4)c4c(N)ncnc43)CC2)CCN1 [Example 21, 1-((trans)-4-((S)-3-methylpiperazin-1-yl)cyclohexyl)-3-(4-phenoxyphenyl)-1H-pyrazolo[3,4-d] pyrimidin-4-amine]	–
17 nM	< 50 nM	higher t1/2	1.4 h	C[C@H]1CN([C@H]2CC[C@H](n3cc(-c4ccc(Oc5ccccc5)cc4)c4c(N)ncnc43)CC2)CCN1 [Example 19, 7-((trans)-4-((S)-3-methylpiperazin-1-yl)cyclohexyl)-5-(4-phenoxyphenyl)-7H-pyrrolo[2,3-d]pyrimidin-4-amine]	–
4.1 nM	< 50 nM	higher t1/2	0.967 h	CN1CCN([C@H]2CC[C@H](n3nc(-c4ccc(Oc5ccccc5)cc4F)c4c(N)ncnc43)CC2)CC1 [Example 103, 3-(2-Fluoro-4-phenoxyphenyl)-1-((trans)-4-(4-methylpiperazin-1-yl)cyclohexyl)-1H-pyrazolo [3,4-d] pyrimidin-4-amine]	bioavailability in vivo [3]: higher bioavailability; plasma clearance in vivo [3]: lower plasma clearance; Dog BAV [3]: 24 % F
5 nM	< 50 nM	higher t1/2	2.78 h	C[C@H]1CN([C@H]2CC[C@H](c3nc(-c4ccc(Oc5ccccc5)cc4F)c4c(N)ncnn43)CC2)CCN1 [Example 165, 5-(2-fluoro-4-phenoxyphenyl)-7-((trans)-4-((S)-3-methylpiperazin-1-yl)cyclohexyl)imidazo[5,1-f][1,2,4]triazin-4-amine]	–
5.1 nM	< 50 nM	higher t1/2	1.97 h	C[C@H]1CN([C@H]2CC[C@H](n3nc(-c4ccc(Oc5ccccc5)cc4F)c4c(N)ncnc43)CC2)CCN1 [Example 127, 3-(2-fluoro-4-phenoxyphenyl)-1-((trans)-4-((S)-3-methylpiperazin-1-yl)cyclohexyl)-1H-pyrazolo[3,4-d]pyrimidin-4-amine]	bioavailability in vivo [3]: higher bioavailability; plasma clearance in vivo [3]: lower plasma clearance; Dog BAV [3]: 57 % F; HCK potency relative to a comparator compound ([1]; example 127 versus example 21 and versus example 17): nearly an order of magnitude higher potency; also recorded: nearly three times greater potency
1.1 nM	< 50 nM	higher t1/2	1.8 h	CN1CCN([C@H]2CC[C@H](c3nc(-c4ccc(Oc5ccccc5)cc4F)c4c(N)ncnn43)CC2)CC1 [Example 163, 5-(2-fluoro-4-phenoxyphenyl)-7-((trans)-4-(4-methylpiperazin-1-yl)cyclohexyl)imidazo[5,1-f][1,2,4]triazin-4-amine]	bioavailability in vivo [3]: higher bioavailability; plasma clearance in vivo [3]: lower plasma clearance; Dog BAV [3]: 51 % F
–	< 50 nM	–	–	Nc1ncnc2c1c(-c1ccc(Oc3ccccc3)cc1)cn2[C@H]1CC[C@H](N2CCNCC2=O)CC1 [Example 90, 1-((trans)-4-(4-Amino-5-(4-phenoxyphenyl)-7H-pyrrolo[2,3-d]pyrimidin-7-yl)cyclohexyl)piperazin-2-one]	–
–	50 to 250 nM	–	–	C[C@@H]1CN([C@H]2CC[C@@H](n3cc(-c4ccc(Oc5ccccc5)cc4F)c4c(N)ncnc43)CC2)CCN1 [Example 16, 5-(2-fluoro-4-phenoxyphenyl)-7-((cis)-4-((R)-3-methylpiperazin-1-yl)cyclohexyl)-7H-pyrrolo[2,3-d]pyrimidin-4-amine]	–
–	< 50 nM	–	–	Nc1ncnc2c1c(-c1ccc(Oc3ccccc3)cc1)cn2[C@H]1CC[C@@H](N2CCC[C@H](N)C2)CC1 [Example 57, 7-((cis)-4-((S)-3-aminopiperidin-1-yl)cyclohexyl)-5-(4-phenoxyphenyl)-7H-pyrrolo[2,3-d]pyrimidin-4-amine]	–
–	250 to 10000 nM	–	–	CN1CC2(C1)CN([C@H]1CC[C@@H](n3cc(-c4ccc(Oc5ccccc5)cc4)c4c(N)ncnc43)CC1)C2 [Example 80, 7-((cis)-4-(6-methyl-2,6-diazaspiro[3.3]heptan-2-yl)cyclohexyl)-5-(4-phenoxyphenyl)-7H-pyrrolo[2,3-d]pyrimidin-4-amine]	–
–	< 50 nM	–	–	C[C@@H]1CN([C@H]2CC[C@@H](n3cc(-c4ccc(Oc5ccccc5)cc4)c4c(N)ncnc43)CC2)C[C@H](C)N1 [Example 26, 7-((cis)-4-((3S,5R)-3,5-dimethylpiperazin-1-yl)cyclohexyl)-5-(4-phenoxyphenyl)-7H-pyrrolo[2,3-d]pyrimidin-4-amine]	–
–	< 50 nM	–	–	CC(=O)NN1CCN([C@H]2CC[C@H](n3cc(-c4ccc(Oc5ccccc5)cc4)c4c(N)ncnc43)CC2)CC1 [Example 40, N-(4-((trans)-4-(4-amino-5-(4-phenoxyphenyl)-7H-pyrrolo[2,3-d]pyrimidin-7-yl)cyclohexyl)piperazin-1-yl)acetamide]	–
–	< 50 nM	–	–	CN1CCC2(CCC(n3cc(-c4ccc(Oc5ccccc5)cc4)c4c(N)ncnc43)CC2)CC1 [Example 142, 7-(3-methyl-3-azaspiro[5.5]undecan-9-yl)-5-(4-phenoxyphenyl)-7H-pyrrolo[2,3-d]pyrimidin-4-amine]	–
–	< 50 nM	–	–	Nc1ncn([C@H]2CC[C@H](n3cc(-c4ccc(Oc5ccccc5)cc4)c4c(N)ncnc43)CC2)n1 [Example 81, 7-((trans)-4-(3-amino-1H-1,2,4-triazol-1-yl)cyclohexyl)-5-(4-phenoxyphenyl)-7H-pyrrolo [2,3-d]pyrimidin-4-amine]	–
–	50 to 250 nM	–	–	C[C@H]1CN([C@H]2CC[C@@H](n3nc(-c4ccc(Oc5ccccc5)cc4F)c4c(N)ncnc43)CC2)CCN1 [Example 128, 3-(2-fluoro-4-phenoxyphenyl)-1-((cis)-4-((S)-3-methylpiperazin-1-yl)cyclohexyl)-1H-pyrazolo[3,4-d]pyrimidin-4-amine]	–
–	< 50 nM	–	–	CN1CCN([C@H]2CC[C@H](c3nc(-c4ccc(NC(=O)Nc5cc(C(C)(C)C)on5)cc4)c4c(N)nccn43)CC2)CC1 [Example 175, 1-(4-(8-amino-3-((trans)-4-(4-methylpiperazin-1-yl)cyclohexyl)imidazo[1,5-a]pyrazin-1-yl)phenyl)-3-(5-(tert-butyl)isoxazol-3-yl)urea]	–
–	50 to 250 nM	–	–	Nc1ncnc2c1c(-c1ccc(Oc3ccccc3)cc1)cn2C1CCC2(CC1)CCN(CCCCO)CC2 [Example 140, 4-(9-(4-amino-5-(4-phenoxyphenyl)-7H-pyrrolo[2,3-d]pyrimidin-7-yl)-3-azaspiro[5.5]undecan-3-yl)butan-1-ol]	–
–	< 50 nM	–	–	CC(=O)NN1CCN([C@H]2CC[C@@H](n3cc(-c4ccc(Oc5ccccc5)cc4)c4c(N)ncnc43)CC2)CC1 [Example 41, N-(4-((cis)-4-(4-amino-5-(4-phenoxyphenyl)-7H-pyrrolo[2,3-d]pyrimidin-7-yl)cyclohexyl)piperazin-1-yl)acetamide]	–
–	< 50 nM	–	–	CN1CCN([C@H]2CC[C@H](c3cc(-c4ccc(Oc5ccccc5)cc4)c4c(N)ncnn43)CC2)CC1 [Example 168, 7-((trans)-4-(4-Methylpiperazin-1-yl)cyclohexyl)-5-(4-phenoxyphenyl)pyrrolo[2,1-f][1,2,4]triazin-4-amine]	–

Structure (SMILES)	IC50 ([1]; 50 μM ATP, read-out: HCK IC50)	IC50 [1, 4]	t1/2 in dog LM compared with the compound of example 1 [2]	half-life at 1 μM [2]	also measured
CN1CCN([C@H]2CC[C@H](n3cc(-c4ccc(Oc5ccccc5)cc4)c4c(N)ncnc43)CC2)CC1 [Example 1, 7-((trans)-4-(4-methylpiperazin-1-yl)cyclohexyl)-5-(4-phenoxyphenyl)-7H-pyrrolo[2,3-d]pyrimidin-4-amine]	3.3 nM	–	–	0.183 h	Dog BAV [3]: 0 % F; IC50 [1]: < 50 nM
